# Experimental data taken from patent US10168342B2, “Lipid probes and uses thereof” (THE SCRIPPS RESEARCH INSTITUTE, priority 2015, dated 2019).
# Where two headings read alike, the source gives them in different places.
# Key:
# [1] = target: T1, AEA-DA lipid probe targets in Neuro2a cells (Mus musculus, UniProt Q9D024)
# T1 sequence (Q9D024 21-483): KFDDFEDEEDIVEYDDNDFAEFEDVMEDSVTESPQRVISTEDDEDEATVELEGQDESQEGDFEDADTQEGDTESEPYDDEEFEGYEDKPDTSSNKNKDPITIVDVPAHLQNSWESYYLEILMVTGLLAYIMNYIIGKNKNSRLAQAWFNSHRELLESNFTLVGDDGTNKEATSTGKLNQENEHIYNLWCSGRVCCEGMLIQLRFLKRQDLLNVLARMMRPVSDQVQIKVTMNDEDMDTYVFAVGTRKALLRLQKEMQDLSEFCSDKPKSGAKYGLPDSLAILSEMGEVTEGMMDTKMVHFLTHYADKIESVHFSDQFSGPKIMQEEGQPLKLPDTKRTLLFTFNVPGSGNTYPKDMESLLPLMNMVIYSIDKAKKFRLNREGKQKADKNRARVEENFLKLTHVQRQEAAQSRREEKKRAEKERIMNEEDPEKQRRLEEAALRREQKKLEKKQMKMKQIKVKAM
# [2] = target: T2, AEA-DA lipid probe targets in Neuro2a cells (Mus musculus, UniProt Q9D379)
# T2 sequence (Q9D379 1-455): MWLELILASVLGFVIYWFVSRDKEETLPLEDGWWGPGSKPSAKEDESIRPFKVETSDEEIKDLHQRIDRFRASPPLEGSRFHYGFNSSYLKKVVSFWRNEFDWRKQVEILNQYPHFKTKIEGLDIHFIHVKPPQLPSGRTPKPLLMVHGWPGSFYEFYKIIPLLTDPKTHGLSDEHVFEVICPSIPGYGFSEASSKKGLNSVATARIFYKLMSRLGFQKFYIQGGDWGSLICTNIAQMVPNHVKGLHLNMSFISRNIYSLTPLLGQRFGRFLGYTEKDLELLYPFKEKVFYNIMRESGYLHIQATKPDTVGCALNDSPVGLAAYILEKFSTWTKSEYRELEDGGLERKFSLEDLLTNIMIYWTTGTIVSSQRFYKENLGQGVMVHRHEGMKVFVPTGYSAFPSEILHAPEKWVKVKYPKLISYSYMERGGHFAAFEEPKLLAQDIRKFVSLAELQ
# [3] = target: AEA-DA lipid probe targets in Neuro2a cells (Mus musculus, UniProt Q64310)
# Chain of AEA-DA lipid probe targets in Neuro2a cells (Mus musculus, UniProt Q64310) (Q64310 whole entry): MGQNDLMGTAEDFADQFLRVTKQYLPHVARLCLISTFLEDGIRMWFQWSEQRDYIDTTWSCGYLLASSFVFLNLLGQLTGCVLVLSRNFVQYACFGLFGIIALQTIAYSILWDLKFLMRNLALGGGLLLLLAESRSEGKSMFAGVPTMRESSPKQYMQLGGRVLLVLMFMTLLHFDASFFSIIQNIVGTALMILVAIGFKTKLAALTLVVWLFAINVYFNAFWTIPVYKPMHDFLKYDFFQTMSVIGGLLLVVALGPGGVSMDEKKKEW
# [4] = target: T3, AEA-DA lipid probe targets in Neuro2a cells (Mus musculus, UniProt P48678)
# T3 sequence (P48678 1-665): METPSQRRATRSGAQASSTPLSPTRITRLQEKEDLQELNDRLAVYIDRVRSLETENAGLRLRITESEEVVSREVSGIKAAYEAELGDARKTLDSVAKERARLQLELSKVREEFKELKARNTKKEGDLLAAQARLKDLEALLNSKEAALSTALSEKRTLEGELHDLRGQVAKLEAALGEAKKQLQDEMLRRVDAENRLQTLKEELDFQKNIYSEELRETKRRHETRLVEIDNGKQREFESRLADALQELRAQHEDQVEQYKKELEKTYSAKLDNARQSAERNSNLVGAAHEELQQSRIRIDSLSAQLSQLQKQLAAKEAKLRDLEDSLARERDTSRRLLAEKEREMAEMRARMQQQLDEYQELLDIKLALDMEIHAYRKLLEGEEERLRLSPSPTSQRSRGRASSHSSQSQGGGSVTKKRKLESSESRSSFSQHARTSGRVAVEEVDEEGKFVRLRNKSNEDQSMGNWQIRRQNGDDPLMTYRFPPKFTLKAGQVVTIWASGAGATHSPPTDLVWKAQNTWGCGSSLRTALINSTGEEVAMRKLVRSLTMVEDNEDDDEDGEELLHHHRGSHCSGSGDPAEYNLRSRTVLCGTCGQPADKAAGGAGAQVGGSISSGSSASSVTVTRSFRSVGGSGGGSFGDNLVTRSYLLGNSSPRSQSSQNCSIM
# [5] = target: T4, AEA-DA lipid probe targets in Neuro2a cells (Mus musculus, UniProt Q02819)
# T4 sequence (Q02819 26-459): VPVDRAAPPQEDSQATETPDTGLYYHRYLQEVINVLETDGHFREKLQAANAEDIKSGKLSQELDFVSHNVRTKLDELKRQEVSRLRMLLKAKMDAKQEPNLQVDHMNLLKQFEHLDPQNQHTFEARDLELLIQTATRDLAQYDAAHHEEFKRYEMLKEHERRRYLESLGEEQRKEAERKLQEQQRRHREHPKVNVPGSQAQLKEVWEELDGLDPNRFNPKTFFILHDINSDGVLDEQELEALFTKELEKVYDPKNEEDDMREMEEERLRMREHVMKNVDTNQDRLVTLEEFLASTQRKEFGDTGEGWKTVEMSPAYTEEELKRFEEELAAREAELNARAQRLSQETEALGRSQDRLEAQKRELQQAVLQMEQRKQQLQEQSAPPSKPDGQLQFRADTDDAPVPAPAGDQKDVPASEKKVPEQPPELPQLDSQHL
# [6] = target: T5, AEA-DA lipid probe targets in Neuro2a cells (Mus musculus, UniProt P21995)
# T5 sequence (P21995 34-330): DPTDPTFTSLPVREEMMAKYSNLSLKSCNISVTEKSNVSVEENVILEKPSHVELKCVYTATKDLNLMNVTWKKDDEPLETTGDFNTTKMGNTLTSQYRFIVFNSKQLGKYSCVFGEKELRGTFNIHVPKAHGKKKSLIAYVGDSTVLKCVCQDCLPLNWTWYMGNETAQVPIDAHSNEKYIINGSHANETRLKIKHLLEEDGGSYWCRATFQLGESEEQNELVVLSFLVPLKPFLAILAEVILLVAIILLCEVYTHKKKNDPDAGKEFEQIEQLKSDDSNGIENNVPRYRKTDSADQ
# [7] = target: T6, AEA-DA lipid probe targets in Neuro2a cells (Mus musculus, UniProt Q8R2Y8)
# T6 sequence (Q8R2Y8 1-181): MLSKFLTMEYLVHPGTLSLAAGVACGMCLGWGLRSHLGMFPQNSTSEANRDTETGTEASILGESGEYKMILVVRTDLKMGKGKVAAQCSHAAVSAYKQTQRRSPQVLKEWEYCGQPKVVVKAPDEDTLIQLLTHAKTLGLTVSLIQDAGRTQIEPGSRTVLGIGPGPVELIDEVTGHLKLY
# [8] = target: AEA-DA lipid probe targets in Neuro2a cells (Mus musculus, UniProt Q9CQ45)
# Chain of AEA-DA lipid probe targets in Neuro2a cells (Mus musculus, UniProt Q9CQ45) (Q9CQ45 31-171): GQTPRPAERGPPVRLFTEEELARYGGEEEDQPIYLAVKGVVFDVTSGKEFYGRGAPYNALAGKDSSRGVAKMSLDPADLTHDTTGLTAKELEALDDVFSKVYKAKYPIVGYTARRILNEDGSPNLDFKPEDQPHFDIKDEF
structure (smiles),measurement,setting,value
"CCCCC/C=C\C/C=C\C/C=C\C/C=C\CCCC(=O)NCCO [AEA, anandamide, reference compound]","SILAC ratio, Ccdc47",[1]; competitor 200 μM,1.7
same,"SILAC ratio, Ephx1",[2]; competitor 200 μM,2.1
same,SILAC ratio Surf4,[3]; competitor 200 μM,1.4
same,SILAC ratio Lmna,[4]; competitor 200 μM,1.1
same,"SILAC ratio, Nucb1",[5]; competitor 200 μM,1.5
same,"SILAC ratio, Emb",[6]; competitor 200 μM,1.8
same,SILAC ratio Ptrh2,[7]; competitor 200 μM,1.5
same,"SILAC ratio, Nenf",[8]; competitor 200 μM,1.4
"O=C(/C=C/c1cccnc1)NCCCCC1CCN(C(=O)c2ccccc2)CC1 [FK-866, reference compound]","SILAC ratio, Ccdc47",[1]; competitor 25 μM,1.3
same,"SILAC ratio, Ephx1",[2]; competitor 25 μM,1.4
same,SILAC ratio Surf4,[3]; competitor 25 μM,1.2
same,SILAC ratio Lmna,[4]; competitor 25 μM,1.2
same,interaction with NUCB1 protein,[5]; FIG. 16I and Table 4,did not interact
same,"SILAC ratio, Nucb1",[5]; competitor 25 μM,1.2
same,"SILAC ratio, Emb",[6]; competitor 25 μM,1.3
same,SILAC ratio Ptrh2,[7]; competitor 25 μM,1.0
same,"SILAC ratio, Nenf",[8]; competitor 25 μM,2.6
"CN1CCN(C(=O)c2c(-c3ccccc3)c3cc([N+](=O)[O-])ccc3n2C)CC1 [KML110, (1-Methyl-5-nitro-3-phenyl-1H-indol-2-yl)(4-methylpiperazin-1-yl)methanone]","SILAC ratio, Ccdc47",[1]; competitor 25 μM,1.7
same,"SILAC ratio, Ephx1",[2]; competitor 25 μM,3.4
same,SILAC ratio Surf4,[3]; competitor 25 μM,1.4
same,SILAC ratio Lmna,[4]; competitor 25 μM,1.3
same,"SILAC ratio, Nucb1",[5]; competitor 25 μM,3.4
same,"SILAC ratio, Emb",[6]; competitor 25 μM,1.8
same,SILAC ratio Ptrh2,[7]; competitor 25 μM,1.0
same,"SILAC ratio, Nenf",[8]; competitor 25 μM,1.7
"CN1CCN(C(=O)c2[nH]c3ccc([N+](=O)[O-])cc3c2-c2ccccc2)CC1 [MJN228, (4-Methylpiperazin-1-yl)(5-nitro-3-phenyl-1H-indol-2-yl)methanone]","SILAC ratio, Ccdc47",[1]; competitor 10 μM,1.4
same,"SILAC ratio, Ccdc47",[1]; competitor 25 μM,1.8
same,"SILAC ratio, Ccdc47",[1]; competitor 50 μM,1.9
same,"SILAC ratio, Ccdc47",[1]; competitor 100 μM,3.1
same,"SILAC ratio, Ephx1",[2]; competitor 10 μM,2.5
same,"SILAC ratio, Ephx1",[2]; competitor 25 μM,3.8
same,"SILAC ratio, Ephx1",[2]; competitor 50 μM,8.2
same,"SILAC ratio, Ephx1",[2]; competitor 100 μM,11.5
same,SILAC ratio Surf4,[3]; competitor 10 μM,1.3
same,SILAC ratio Surf4,[3]; competitor 25 μM,1.4
same,SILAC ratio Surf4,[3]; competitor 50 μM,1.7
same,SILAC ratio Surf4,[3]; competitor 100 μM,2.0
same,SILAC ratio Lmna,[4]; competitor 10 μM,1.3
same,SILAC ratio Lmna,[4]; competitor 25 μM,1.1
same,SILAC ratio Lmna,[4]; competitor 50 μM,1.3
same,SILAC ratio Lmna,[4]; competitor 100 μM,1.5
same,concentration at which lipid probe binding to NUCB1 is inhibited (as low as),"[5]; Neuro2a cells, AEA-DA 5 μM",10 µM
same,concentration of near-maximal inhibition of lipid probe binding to NUCB1,"[5]; Neuro2a cells, AEA-DA 5 μM",~25 µM
same,"SILAC ratio, Nucb1",[5]; competitor 10 μM,3.1
same,"SILAC ratio, Nucb1",[5]; competitor 25 μM,4.7
same,"SILAC ratio, Nucb1",[5]; competitor 50 μM,5.6
same,"SILAC ratio, Nucb1",[5]; competitor 100 μM,6.2
same,"SILAC ratio, Emb",[6]; competitor 10 μM,1.3
same,"SILAC ratio, Emb",[6]; competitor 25 μM,1.7
same,"SILAC ratio, Emb",[6]; competitor 50 μM,1.4
same,"SILAC ratio, Emb",[6]; competitor 100 μM,2.2
same,SILAC ratio Ptrh2,[7]; competitor 10 μM,1.1
same,SILAC ratio Ptrh2,[7]; competitor 25 μM,1.0
same,SILAC ratio Ptrh2,[7]; competitor 50 μM,1.2
same,SILAC ratio Ptrh2,[7]; competitor 100 μM,1.1
same,"SILAC ratio, Nenf",[8]; competitor 10 μM,1.3
same,"SILAC ratio, Nenf",[8]; competitor 25 μM,1.3
same,"SILAC ratio, Nenf",[8]; competitor 50 μM,1.8
same,"SILAC ratio, Nenf",[8]; competitor 100 μM,1.7
"C=CCN(C)CCCCCCOc1ccc(C(=O)c2ccc(Br)cc2)c(F)c1 [Ro 48-8071, reference compound]","SILAC ratio, Ccdc47",[1]; competitor 25 μM,1.4
same,"SILAC ratio, Ephx1",[2]; competitor 25 μM,2.4
same,SILAC ratio Surf4,[3]; competitor 25 μM,1.1
same,SILAC ratio Lmna,[4]; competitor 25 μM,1.1
same,"SILAC ratio, Nucb1",[5]; competitor 25 μM,0.9
same,"SILAC ratio, Emb",[6]; competitor 25 μM,1.1
same,SILAC ratio Ptrh2,[7]; competitor 25 μM,0.9
same,"SILAC ratio, Nenf",[8]; competitor 25 μM,0.9
